# Several values for one entry are separate records, joined by “and”; a condition that tells them apart may be missing. Identical values can stand only once.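 These data come from cells grown in 96-well plates and exposed to compound for 48 hours at five concentrations. Here, GI50 denotes the concentration required for 50% inhibition of growth. At the TGI there is no net growth.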
# Test system: MDA-MB-468 breast
# Experiment: DTP human tumour cell line panel, 48 h
SMILES,GI50,TGI
O=C(CSc1nc2ccc([N+](=O)[O-])cc2[nH]1)Nc1cccc(Cl)c1,1590 nM,5890 nM
Nc1ccccc1/C=N\Nc1ccccc1,79700 nM,> 100000 nM
O=C(c1ccccc1)c1ccc(Cl)c([N+](=O)[O-])c1,2160 nM,6460 nM
CCCN(CCC)c1ccc(C=O)cc1,16400 nM,53900 nM
COc1cc(-c2cc(/C=C/C(=O)c3ccc4c(c3)OCO4)[nH]n2)cc(OC)c1OC,1400 nM,2860 nM
O=C(/C=C/c1ccccn1)c1ccccc1O,1610 nM,3100 nM
CC(C)c1ccc2c(N=Nc3ccc(S(N)(=O)=O)cc3)c(O)[nH]c2c1,7760 nM,> 25000 nM
COc1ccc(Nc2c3c4c(cccc4[nH]c2=O)C(=O)c2ccccc2-3)cc1,23.7 nM,
N/C(=N\c1nc2c(Cl)cc(Cl)cc2s1)C(Cl)(Cl)Cl,2850 nM,12300 nM
CCOCCc1c(O)nc(SC)[nH]c1=O,> 100000 nM,> 100000 nM
C#CC[C@@H]1C[C@]2(C)[C@H]3CC[C@@H]4[C@H]5[C@H](C(=C)C)CC[C@]5(C(=O)O)CC[C@@]4(C)[C@]3(C)CC[C@H]2C(C)(C)[C@H]1O,2210 nM,5290 nM
Nc1ncnc2c1c(-c1cccc(OCc3ccccc3)c1)cn2C1CC(CN2CCCC2)C1 (centres undefined),1380 nM,3140 nM
C(=N/Nc1ncnc2nc[nH]c12)/c1ccccn1,86.8 nM,441 nM
Fc1ccc(-c2ncn(C3CCNCC3)c2-c2ccnc(Oc3ccccc3)n2)cc1,3690 nM,12200 nM
O=C(Nc1ncc(Cc2ccccc2)s1)c1ccc2c(c1)OCCO2,254 nM,
Cc1ccc(Cl)cc1Nc1nc(C(F)(F)F)ccc1C(=O)N/N=C/c1c(Cl)cccc1Cl,662 nM,8470 nM
CCCn1cc(C2=C(c3cn(C)c4ccccc34)C(=O)NC2=O)c2ccccc21,429 nM,11100 nM
O=C1Nc2cc(Cl)ccc2Oc2cc(Oc3ccccc3)ccc21,1850 nM,8880 nM
CN(C)c1ccc(/C=C(\C#N)c2cc3ccccc3n2C)cc1,69.4 nM,2110 nM

SMILES,GI50,TGI
Cn1cc(C2=C(c3c4n(c5ccccc35)CC(CN)C4)C(=O)NC2=O)c2ccccc21 (centres undefined),2790 nM,6170 nM
CS(=O)(=O)N1CCN(Cc2cc3nc(-c4cccc5[nH]ncc45)nc(N4CCOCC4)c3s2)CC1,55.3 nM and 123 nM,467 nM and 985 nM
CC(C)(C)C(=O)OCOP(=O)(OCOC(=O)C(C)(C)C)C1CCCN(OC(=O)c2ccccc2)C1=O (centres undefined),1860 nM,14100 nM
COc1ccc(-n2c(SCC(=O)Nc3ccc(-c4nc5ccccc5[nH]4)cc3)nc3ccccc3c2=O)cc1,1970 nM,4630 nM
Fc1ccc(CNc2c3ccccc3nc3ccccc23)cc1,1910 nM,4860 nM
C=C1C(=O)O[C@H]2[C@H]1CC/C(COC(=O)/C=C\C(=O)NCc1ccc(Cn3c(=O)sn(-c4ccc(OC)cc4)c3=O)cc1)=C\CC[C@@]1(C)O[C@@H]21,652 nM,1520 nM
O=C(CCc1nnc(-c2c(Cl)cccc2Cl)o1)c1nc2ccccc2[nH]1,797 nM,12200 nM
CCc1ccc(CCC(=O)Nc2ncc(Cc3cc(Cl)ccc3Cl)s2)o1,769 nM,5970 nM
C=C1C(=O)O[C@H]2[C@H]1CC/C(C=Nc1ccc(C(F)(F)F)cc1N)=C\CC[C@@]1(C)O[C@@H]21,3490 nM,12600 nM
COC1OCC(OS(=O)(=O)c2ccc(C)cc2)C(OC(=O)c2ccccc2)C1OC(=O)c1ccccc1 (centres undefined),2500 nM,> 100000 nM
COc1ccc(C(=O)Nc2ncc(Cc3ccccc3Cl)s2)cc1,353 nM,33000 nM
CCCCCCCCCCCC1=NC(C)(C)CN1CCO,3270 nM,12800 nM
O=C(CCCCC(=O)N/N=C\c1ccccc1Cl)N/N=C\c1ccccc1Cl,1830 nM,49500 nM
CCOC(=O)C1=C(N)Oc2c(sc3c(C)cccc23)C1c1ccc(Cl)cc1 (centres undefined),3110 nM,13400 nM
COc1ccccc1CNCCCN1C(=O)c2ccc3c4c(ccc(c24)C1=O)C(=O)N(CCCNCCCCNCCCCN)C3=O,280 nM,1170 nM
O=C1[C@H]2Cc3c([nH]c4ccccc34)[C@@H](c3ccc(Br)cc3)N2C(=O)CN1C1CCN(CC2CCCCC2)CC1,13200 nM,27200 nM
COc1cc(C(=O)NC2CCN(C)CC2)ccc1Nc1ncc2c(n1)N(C1CCCC1)CC(F)(F)C(=O)N2C,< 10 nM,< 42.7 nM
CCOC(=O)c1ccc2c(c1)[n+](=O)c(C(=O)c1ccc3ccccc3c1)c(C(F)(F)F)n2[O-],372 nM,1510 nM
O=C1Nc2ccccc2C1(c1ccc(O)c(F)c1)c1ccc(O)c(F)c1,290 nM,996 nM

# From PubChem BioAssay (NCI)
